The record followed here is patent US20240415828A1, “TLR7 AGONIST AND COMBINATIONS FOR CANCER TREATMENT” (BIONTECH SE, priority 2021, published 2024).

For data set [1], the system named is CT26 colon carcinoma cells. Description: CT26 tumor model, BNT411 alone and with anti-PD-L1 antibody (Example 5). Type of data set: in vivo. The following applies: no adverse clinical effects, higher toxicities, or body weight loss. On the procedure: FIG. 6. Anti-tumoral efficacy of BNT411 alone and in combination with an anti-PD-L1 antibody in a tumor mouse model. Mice (n=10 per group) subcutaneously inoculated with 5×10^5 CT26 colon carcinoma cells were used as tumor mouse model. The anti-PD-L1 antibody anti-PD-L1-mIgG1e3 was administered intraperitoneally (i.p.) at a dose level of 200 μg per animal. BNT411 was administered i.v. at a dose level of 3 mg/kg. All treatments were delivered once every five days for a total of six doses. Body weight changes and tumor growth were assessed on study day 21 when there were at least nine animals alive in each group. (A) Dosing schedule. (B) Graph showing the tumor volumes vs. study day. Mean tumor volume±SEM (mm^3) is depicted for each treatment. Last observations were carried forward until day 35 when only the animal who cleared the tumor was left. […]
BALB/c mice were inoculated s.c. with 2.5×10^5−5×10^5 CT26-WT into the flank, respectively. […] Tumor volume was measured unblinded with a caliper and calculated using the formula (a×b^2)/2 (a being the largest and b being the smallest diameter of the tumor). […]
Four groups of 10 animals were inoculated with 1×10^6 CT26 cells per animal into the dorsal right flank (day 0). […] Body weight changes and tumor growth were assessed on study day 21 when there were at least nine animals alive in each group. […]

The next data set concerns Human PBMCs. The data set can be described thus: In vitro human PBMC stimulation assay (IFNα, multiplexed CBA). The format is cell-based. The following applies: 24 h after stimulation, n=5. On the procedure:
FIG. 1. In vitro human PBMC stimulation assay. […] Data shown as mean±standard deviation (SD), n=5.
After performing a serial dilution of the test compounds (such as BNT411), 5 μL of each sample is transferred/pipetted to single wells of a 96-well-plate. As negative control, plasma which has been prepared from whole blood of each donor is used. Subsequently, 245 μL of RPMI-medium is added to each well, leading to a 1:50 dilution of each sample, named spiking solutions. The heparinized whole blood is pipetted to separate 96-well-plate. After seeding whole blood, the prepared spiking solutions are added: 190 μL of whole blood is seeded in each well and 10 μL of spiking solutions is added to get a final volume of 200 μL per well and additional 1:20 dilution of all samples. Finally, the plates are incubated at 37° C. and 5% CO2. After 24 h incubation the plates are centrifuged at 500×g for 5 min. The plasma of all samples is harvested, transferred to a new 96-well-plate and frozen at −15° C. to −25° C. until performing the CBA, but at least 3 h.
The CBA is performed with the frozen/thawed plasma samples according to the manufacturer's instructions for ProCarta multiplex kits. For evaluation of cytokine concentrations, assay duplicates of all samples are measured by using the luminex system. […]

`COCCc1nc2c(N)nc3ccccc3c2n1CCCCN(C(C)=O)C1CCOCC1` [BNT411]: the tolerability throughout treatment entry in data set [1] was “well tolerated”. In the data set on Human PBMCs, the “amount of IFNα induced compared to imiquimod (R837), resiquimod (R848) and 852A” value is “significantly higher amount”; the “concentrations inducing IFNα, fold lower compared to imiquimod (R837), resiquimod (R848) and 852A” value is given as 10 to 30 fold.
